Activity coefficient data for 66 compounds are collected here from the NIST ThermoML archive (doi:10.1021/je060033f).

Structures are written as SMILES. Numbers after ± are expanded uncertainties.

The data set can be described thus: activity coefficient (dimensionless); of the first substance listed, at infinite dilution; xn = mol fraction of the nth substance listed. As to conditions: 323.15 K; 101 kPa; Liquid; Chromatography; x1 = 0.
For the compound `C1CCCCC1` [cyclohexane] + CCCCCCCC[n+]1ccn(CCCB(O)O)c1.[Br-], the activity coefficient was 8.15 ± 0.56.
The value for `CCCO` [propan-1-ol] + C=CC[n+]1ccn(CCCCCCCC)c1.[Br-] was 0.28 ± 0.03; that for `CO` [methanol] + CCCCCCCC[n+]1ccn(CCCB(O)O)c1.[Br-] was 0.04; that for `CCCCCC` [hexane] + CCCCCCCC[n+]1ccn(CCCB(O)O)c1.[Br-] was 18.2 ± 1.2.
Under `C1COCCO1` [1,4-dioxane] + CCCCCCCC[n+]1ccn(CCCB(O)O)c1.[Br-] stands 1.78 ± 0.12; under `CCc1ccccc1` [ethylbenzene] + CCCCCCCC[n+]1ccn(CCCB(O)O)c1.[Br-], 3.28 ± 0.22; under `CCCC(C)=O` [pentan-2-one] + C=CCn1cc[n+](C)c1.[Br-], 4.32 ± 0.29.
With `CCC[N+](=O)[O-]` [1-nitropropane] + C=CCn1cc[n+](C)c1.[Br-], the activity coefficient came to 1.83 ± 0.12.
Take `CC#N` [acetonitrile] + C=CC[n+]1ccn(CCCCCCCC)c1.[Br-]: the activity coefficient was determined as 0.98 ± 0.06.
Take `C=CCCCC` [hex-1-ene] + CCCCCCCCCCCC[n+]1ccn(CCCB(O)O)c1.[Br-]: the activity coefficient is 3.6 ± 0.25.
Regarding `Cc1ccccc1C` [1,2-dimethylbenzene] + C[n+]1ccn(CCCB(O)O)c1.[Br-], the activity coefficient is 44 ± 3.
On to `ClCCl` [dichloromethane] + C=CC[n+]1ccn(CCCCCCCC)c1.[Br-], for which the activity coefficient stood at 0.28 ± 0.03.
As for `CCc1ccccc1` [ethylbenzene] + C=CC[n+]1ccn(CCCCCCCC)c1.[Br-], the activity coefficient is 2.56 ± 0.17.
Consider `Cc1ccccc1` [toluene] + C=CCn1cc[n+](C)c1.[Br-], for which the activity coefficient was determined as 6.19 ± 0.42.
With `c1ccccc1` [benzene] + C=CC[n+]1ccn(CCCCCCCCCCCC)c1.[Br-], the activity coefficient turned out to be 1.08 ± 0.07.
Under `C#CCCCCC` [1-heptyne] + CCCCCCCC[n+]1ccn(CCCB(O)O)c1.[Br-] stands 3.7 ± 0.25; under `CC(C)O` [propan-2-ol] + C=CC[n+]1ccn(CCCCCCCC)c1.[Br-], 0.36 ± 0.03; under `c1ccsc1` [thiophene] + C[n+]1ccn(CCCB(O)O)c1.[Br-], 19.4 ± 1.3.
`CCCCCCCC` [octane] + C=CC[n+]1ccn(CCCCCCCCCC)c1.[Br-]: the activity coefficient is 14.3 ± 0.98.
Turning to `Cc1ccccc1` [toluene] + CCCCCCCCCCCC[n+]1ccn(CCCB(O)O)c1.[Br-], the activity coefficient amounted to 3.36 ± 0.23.
On to `CCCCCCC` [heptane] + CCCCCCCCCCCC[n+]1ccn(CCCB(O)O)c1.[Br-], for which the activity coefficient is 5.36 ± 0.37.
In the case of `CCCCCCCCC` [nonane] + C=CC[n+]1ccn(CCCCCCCCCCCC)c1.[Br-], the activity coefficient amounted to 6.93 ± 0.47.
For `ClC(Cl)(Cl)Cl` [tetrachloromethane] + CCCCCCCC[n+]1ccn(CCCB(O)O)c1.[Br-], the activity coefficient amounted to 1.23 ± 0.08.
Take `CO` [methanol] + C=CC[n+]1ccn(CCCCCCCCCCCC)c1.[Br-]: the activity coefficient amounted to 0.15 ± 0.03.
For the compound `CCC(C)=O` [butanone] + C[n+]1ccn(CCCB(O)O)c1.[Br-], the activity coefficient was determined as 21.8 ± 1.5.
As to `CCC[N+](=O)[O-]` [1-nitropropane] + C=CC[n+]1ccn(CCCCCCCC)c1.[Br-], the activity coefficient turned out to be 1.23 ± 0.08.
Take `C=CCCCC` [hex-1-ene] + C=CC[n+]1ccn(CCCCCCCCCCCC)c1.[Br-]: the activity coefficient stood at 3.47 ± 0.24.
Turning to `CCCCCCCC` [octane] + CCCCCCCC[n+]1ccn(CCCB(O)O)c1.[Br-], the activity coefficient is 23.6 ± 1.6.
With `ClCCl` [dichloromethane] + CCCCCCCCCC[n+]1ccn(CCCB(O)O)c1.[Br-], the activity coefficient stood at 0.25 ± 0.03.
Under `C=CCCCC` [hex-1-ene] + C=CC[n+]1ccn(CCCCCCCCCC)c1.[Br-] stands 5.89 ± 0.4; under `Cc1ccccc1C` [1,2-dimethylbenzene] + C=CCn1cc[n+](C)c1.[Br-], 8.98 ± 0.61.
As to `C#CCCCC` [1-hexyne] + CCCCCCCC[n+]1ccn(CCCB(O)O)c1.[Br-], the activity coefficient turned out to be 2.77 ± 0.19.
Regarding `C#CCCCC` [1-hexyne] + C=CCn1cc[n+](C)c1.[Br-], the activity coefficient stood at 8.27 ± 0.56.
Turning to `CCCCCCCC` [octane] + CCCCCCCCCC[n+]1ccn(CCCB(O)O)c1.[Br-], the activity coefficient worked out at 8.81 ± 0.6.
As to `Cc1ccccc1C` [1,2-dimethylbenzene] + CCCCCCCC[n+]1ccn(CCCB(O)O)c1.[Br-], the activity coefficient stood at 3.11 ± 0.21.
With `CCCCCCCCC` [nonane] + CCCCCCCCCCCC[n+]1ccn(CCCB(O)O)c1.[Br-], the activity coefficient was determined as 6.99 ± 0.48.
Turning to `CCc1ccccc1` [ethylbenzene] + CCCCCCCCCC[n+]1ccn(CCCB(O)O)c1.[Br-], the activity coefficient is 2.37 ± 0.16.
As for `CCCCCC` [hexane] + CCCCCCCCCC[n+]1ccn(CCCB(O)O)c1.[Br-], the activity coefficient amounted to 5.45 ± 0.37.
Consider `C#CCCCC` [1-hexyne] + C=CC[n+]1ccn(CCCCCCCC)c1.[Br-], for which the activity coefficient was determined as 2.04 ± 0.14.
In the case of `CC(C)CO` [2-methyl-1-propanol] + C=CC[n+]1ccn(CCCCCCCCCC)c1.[Br-], the activity coefficient was 0.29 ± 0.03.
The value for `C=CCCCC` [hex-1-ene] + CCCCCCCC[n+]1ccn(CCCB(O)O)c1.[Br-] was 8.32 ± 0.57; that for `CCc1ccccc1` [ethylbenzene] + CCCCCCCCCCCC[n+]1ccn(CCCB(O)O)c1.[Br-] was 3.83 ± 0.26; that for `ClCCl` [dichloromethane] + C[n+]1ccn(CCCB(O)O)c1.[Br-] was 3.2 ± 0.22.
Consider `C=CCCCC` [hex-1-ene] + C=CCn1cc[n+](C)c1.[Br-], for which the activity coefficient turned out to be 16.5 ± 1.1.
For `Cc1ccccc1C` [1,2-dimethylbenzene] + C=CC[n+]1ccn(CCCCCCCCCC)c1.[Br-], the activity coefficient was 2.34 ± 0.16.
For the compound `ClC(Cl)Cl` [trichloromethane] + CCCCCCCCCC[n+]1ccn(CCCB(O)O)c1.[Br-], the activity coefficient turned out to be 0.12 ± 0.03.
Take `Cc1ccccc1` [toluene] + C=CC[n+]1ccn(CCCCCCCCCCCC)c1.[Br-]: the activity coefficient came out at 1.38 ± 0.09.
As to `CCCCCCC` [heptane] + C=CC[n+]1ccn(CCCCCCCCCCCC)c1.[Br-], the activity coefficient is 5.32 ± 0.36.
Turning to `ClCCl` [dichloromethane] + C=CCn1cc[n+](C)c1.[Br-], the activity coefficient worked out at 0.33 ± 0.03.
Take `CCC(C)=O` [butanone] + CCCCCCCC[n+]1ccn(CCCB(O)O)c1.[Br-]: the activity coefficient was found to be 1.88 ± 0.13.
The value for `CC#N` [acetonitrile] + CCCCCCCCCC[n+]1ccn(CCCB(O)O)c1.[Br-] was 0.95 ± 0.06; that for `CCCCCCC` [heptane] + C=CC[n+]1ccn(CCCCCCCC)c1.[Br-] was 11.4 ± 0.78; that for `CC(C)CO` [2-methyl-1-propanol] + C=CCn1cc[n+](C)c1.[Br-] was 0.33 ± 0.03.
For `CC#N` [acetonitrile] + C[n+]1ccn(CCCB(O)O)c1.[Br-], the activity coefficient came out at 3.3 ± 0.22.
As for `CCOCC` [diethyl ether] + C=CC[n+]1ccn(CCCCCCCC)c1.[Br-], the activity coefficient was 4.18 ± 0.28.
For `C=CCCCC` [hex-1-ene] + CCCCCCCCCC[n+]1ccn(CCCB(O)O)c1.[Br-], the activity coefficient amounted to 3.76 ± 0.26.
With `Cc1cccc(C)c1` [1,3-dimethylbenzene] + C=CC[n+]1ccn(CCCCCCCCCCCC)c1.[Br-], the activity coefficient worked out at 1.85 ± 0.12.
`CCO` [ethanol] + C=CC[n+]1ccn(CCCCCCCCCC)c1.[Br-]: the activity coefficient stood at 0.26 ± 0.03.
On to `CC(C)CO` [2-methyl-1-propanol] + C=CC[n+]1ccn(CCCCCCCC)c1.[Br-], for which the activity coefficient was 0.29 ± 0.03.
As to `CO` [methanol] + C=CC[n+]1ccn(CCCCCCCCCC)c1.[Br-], the activity coefficient was 0.17 ± 0.03.
Turning to `ClC(Cl)Cl` [trichloromethane] + C=CC[n+]1ccn(CCCCCCCC)c1.[Br-], the activity coefficient amounted to 0.14 ± 0.03.
Regarding `C#CCCCCC` [1-heptyne] + C=CCn1cc[n+](C)c1.[Br-], the activity coefficient amounted to 13.2 ± 0.9.
With `CCCCCCC` [heptane] + C=CCn1cc[n+](C)c1.[Br-], the activity coefficient was found to be 49.6 ± 3.4.
`CCC[N+](=O)[O-]` [1-nitropropane] + C=CC[n+]1ccn(CCCCCCCCCC)c1.[Br-]: the activity coefficient was 1.14 ± 0.07.
Take `C1COCCO1` [1,4-dioxane] + C[n+]1ccn(CCCB(O)O)c1.[Br-]: the activity coefficient worked out at 11.2 ± 0.77.
Under `CCCCCCC` [heptane] + CCCCCCCC[n+]1ccn(CCCB(O)O)c1.[Br-] stands 20.2 ± 1.4.
